Columns and labels:
Shikonin + Foretinib = compound: CC(C)=CC[C@@H](O)C1=CC(=O)c2c(O)ccc(O)c2C1=O [Shikonin] + COc1cc2c(Oc3ccc(NC(=O)C4(C(=O)Nc5ccc(F)cc5)CC4)cc3F)ccnc2cc1OCCCN1CCOCC1 [Foretinib] (partner 0.25 µM); assay: relative viability (nuclei count vs DMSO), 5 days (fraction); higher = more cells survive
Summary of the method: (§1)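 Lung cancer cell lines in 1536-well plates got either a single drug or a fixed anchor-drug dose together with five library-drug doses (not always all listed) in √10 steps, by pin tool, on the day after seeding. Nuclei were counted after 5 days, and relative viability is the treated-to-vehicle ratio of nuclei counts. Values are medians of duplicate plates.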

[1] = compound: CC(C)N(CCCNC(=O)Nc1ccc(C(C)(C)C)cc1)C[C@H]1O[C@@H](n2ccc3c(N)ncnc32)[C@H](O)[C@@H]1O + Cc1cc(Nc2cc(N3CCN(C)CC3)nc(Sc3ccc(NC(=O)C4CC4)cc3)n2)n[nH]1 [Tozasertib] (partner 0.1 µM); assay: as above
Summary of the method: as §1

LCLC-97TM1
relative viability (Shikonin + Foretinib; first compound 0.01 µM): 0.949 | relative viability (Shikonin + Foretinib; first compound 0.1 µM): 1.02 | relative viability (Shikonin + Foretinib; first compound 0.3162 µM): 0.912 | relative viability (Shikonin + Foretinib; first compound 1 µM): 0.962 | relative viability ([1]; first compound 0.08 µM): 0.21 | relative viability ([1]; first compound 0.253 µM): 0.17 | relative viability ([1]; first compound 0.8 µM): 0.258 | relative viability ([1]; first compound 2.53 µM): 0.248 | relative viability ([1]; first compound 8 µM): 0.21

NCI-H650
relative viability (Shikonin + Foretinib; first compound 0.01 µM): 1.01 | relative viability (Shikonin + Foretinib; first compound 0.1 µM): 0.999 | relative viability (Shikonin + Foretinib; first compound 0.3162 µM): 1.08 | relative viability (Shikonin + Foretinib; first compound 1 µM): 1.01 | relative viability ([1]; first compound 0.08 µM): 0.689 | relative viability ([1]; first compound 0.253 µM): 0.768 | relative viability ([1]; first compound 0.8 µM): 0.691 | relative viability ([1]; first compound 2.53 µM): 0.731 | relative viability ([1]; first compound 8 µM): 0.696

PC-14
relative viability (Shikonin + Foretinib; first compound 0.01 µM): 0.914 | relative viability (Shikonin + Foretinib; first compound 0.1 µM): 1 | relative viability (Shikonin + Foretinib; first compound 0.3162 µM): 1.15 | relative viability (Shikonin + Foretinib; first compound 1 µM): 1.09 | relative viability ([1]; first compound 0.08 µM): 0.529 | relative viability ([1]; first compound 0.253 µM): 0.598 | relative viability ([1]; first compound 0.8 µM): 0.598 | relative viability ([1]; first compound 2.53 µM): 0.6 | relative viability ([1]; first compound 8 µM): 0.551

H3255
relative viability (Shikonin + Foretinib; first compound 0.01 µM): 0.851 | relative viability (Shikonin + Foretinib; first compound 0.1 µM): 0.876 | relative viability (Shikonin + Foretinib; first compound 0.3162 µM): 0.869 | relative viability (Shikonin + Foretinib; first compound 1 µM): 0.856 | relative viability ([1]; first compound 0.08 µM): 0.735 | relative viability ([1]; first compound 0.253 µM): 0.473 | relative viability ([1]; first compound 0.8 µM): 0.466 | relative viability ([1]; first compound 2.53 µM): 0.457 | relative viability ([1]; first compound 8 µM): 0.609

SK-MES-1
relative viability (Shikonin + Foretinib; first compound 0.01 µM): 1.01 | relative viability (Shikonin + Foretinib; first compound 0.1 µM): 1.2 | relative viability (Shikonin + Foretinib; first compound 0.3162 µM): 0.965 | relative viability (Shikonin + Foretinib; first compound 1 µM): 0.939 | relative viability ([1]; first compound 0.08 µM): 0.855 | relative viability ([1]; first compound 0.253 µM): 0.959 | relative viability ([1]; first compound 0.8 µM): 0.962 | relative viability ([1]; first compound 2.53 µM): 0.92 | relative viability ([1]; first compound 8 µM): 0.872

NCI-H1437
relative viability (Shikonin + Foretinib; first compound 0.01 µM): 1.37 | relative viability (Shikonin + Foretinib; first compound 0.1 µM): 1.26 | relative viability (Shikonin + Foretinib; first compound 0.3162 µM): 1.26 | relative viability (Shikonin + Foretinib; first compound 1 µM): 1.27 | relative viability ([1]; first compound 0.08 µM): 0.405 | relative viability ([1]; first compound 0.253 µM): 0.38 | relative viability ([1]; first compound 0.8 µM): 0.409 | relative viability ([1]; first compound 2.53 µM): 0.372 | relative viability ([1]; first compound 8 µM): 0.389

LU99A
relative viability (Shikonin + Foretinib; first compound 0.01 µM): 0.854 | relative viability (Shikonin + Foretinib; first compound 0.1 µM): 0.815 | relative viability (Shikonin + Foretinib; first compound 0.3162 µM): 0.797 | relative viability (Shikonin + Foretinib; first compound 1 µM): 0.744 | relative viability ([1]; first compound 0.08 µM): 0.279 | relative viability ([1]; first compound 0.253 µM): 0.316 | relative viability ([1]; first compound 0.8 µM): 0.276 | relative viability ([1]; first compound 2.53 µM): 0.237 | relative viability ([1]; first compound 8 µM): 0.261

HCC-827
relative viability (Shikonin + Foretinib; first compound 0.01 µM): 0.976 | relative viability (Shikonin + Foretinib; first compound 0.1 µM): 1.15 | relative viability (Shikonin + Foretinib; first compound 0.3162 µM): 1.06 | relative viability (Shikonin + Foretinib; first compound 1 µM): 1.08 | relative viability ([1]; first compound 0.08 µM): 0.423 | relative viability ([1]; first compound 0.253 µM): 0.425 | relative viability ([1]; first compound 2.53 µM): 0.436 | relative viability ([1]; first compound 8 µM): 0.412

LK-2
relative viability (Shikonin + Foretinib; first compound 0.01 µM): 1.15 | relative viability (Shikonin + Foretinib; first compound 0.1 µM): 1.31 | relative viability (Shikonin + Foretinib; first compound 0.3162 µM): 1.85 | relative viability (Shikonin + Foretinib; first compound 1 µM): 1.16 | relative viability ([1]; first compound 0.08 µM): 0.159 | relative viability ([1]; first compound 0.253 µM): 0.178 | relative viability ([1]; first compound 0.8 µM): 0.204 | relative viability ([1]; first compound 2.53 µM): 0.195 | relative viability ([1]; first compound 8 µM): 0.17

HCC-366
relative viability (Shikonin + Foretinib; first compound 0.01 µM): 0.928 | relative viability (Shikonin + Foretinib; first compound 0.1 µM): 1.2 | relative viability (Shikonin + Foretinib; first compound 0.3162 µM): 0.979 | relative viability (Shikonin + Foretinib; first compound 1 µM): 0.939 | relative viability ([1]; first compound 0.08 µM): 0.0971 | relative viability ([1]; first compound 0.253 µM): 0.163 | relative viability ([1]; first compound 0.8 µM): 0.157 | relative viability ([1]; first compound 2.53 µM): 0.0768 | relative viability ([1]; first compound 8 µM): 0.103

BEN
relative viability (Shikonin + Foretinib; first compound 0.01 µM): 0.576 | relative viability (Shikonin + Foretinib; first compound 0.1 µM): 0.744 | relative viability (Shikonin + Foretinib; first compound 0.3162 µM): 0.839 | relative viability (Shikonin + Foretinib; first compound 1 µM): 0.848 | relative viability ([1]; first compound 0.08 µM): 0.49 | relative viability ([1]; first compound 0.253 µM): 0.642 | relative viability ([1]; first compound 0.8 µM): 0.485 | relative viability ([1]; first compound 2.53 µM): 0.532 | relative viability ([1]; first compound 8 µM): 0.452

NCI-H2347
relative viability (Shikonin + Foretinib; first compound 0.01 µM): 1.15 | relative viability (Shikonin + Foretinib; first compound 0.1 µM): 1.27 | relative viability (Shikonin + Foretinib; first compound 0.3162 µM): 0.835 | relative viability (Shikonin + Foretinib; first compound 1 µM): 0.953 | relative viability ([1]; first compound 0.08 µM): 0.51 | relative viability ([1]; first compound 0.253 µM): 0.492 | relative viability ([1]; first compound 0.8 µM): 0.48 | relative viability ([1]; first compound 2.53 µM): 0.539 | relative viability ([1]; first compound 8 µM): 0.654

NCI-H1395
relative viability (Shikonin + Foretinib; first compound 0.01 µM): 0.955 | relative viability (Shikonin + Foretinib; first compound 0.1 µM): 0.949 | relative viability (Shikonin + Foretinib; first compound 0.3162 µM): 0.948 | relative viability (Shikonin + Foretinib; first compound 1 µM): 0.939 | relative viability ([1]; first compound 0.08 µM): 0.727 | relative viability ([1]; first compound 0.253 µM): 0.731 | relative viability ([1]; first compound 0.8 µM): 0.63 | relative viability ([1]; first compound 2.53 µM): 0.774 | relative viability ([1]; first compound 8 µM): 0.741

201T
relative viability (Shikonin + Foretinib; first compound 0.01 µM): 1.07 | relative viability (Shikonin + Foretinib; first compound 0.1 µM): 1.15 | relative viability (Shikonin + Foretinib; first compound 0.3162 µM): 1.19 | relative viability (Shikonin + Foretinib; first compound 1 µM): 1.25 | relative viability ([1]; first compound 0.08 µM): 0.871 | relative viability ([1]; first compound 0.253 µM): 0.896 | relative viability ([1]; first compound 0.8 µM): 0.974 | relative viability ([1]; first compound 2.53 µM): 0.898 | relative viability ([1]; first compound 8 µM): 0.902

NCI-H2170
relative viability (Shikonin + Foretinib; first compound 0.01 µM): 1.03 | relative viability (Shikonin + Foretinib; first compound 0.1 µM): 0.88 | relative viability (Shikonin + Foretinib; first compound 0.3162 µM): 1.06 | relative viability (Shikonin + Foretinib; first compound 1 µM): 1.02 | relative viability ([1]; first compound 0.08 µM): 0.723 | relative viability ([1]; first compound 0.253 µM): 0.72 | relative viability ([1]; first compound 0.8 µM): 0.645 | relative viability ([1]; first compound 2.53 µM): 0.709 | relative viability ([1]; first compound 8 µM): 0.74

NCI-H596
relative viability (Shikonin + Foretinib; first compound 0.01 µM): 0.868 | relative viability (Shikonin + Foretinib; first compound 0.1 µM): 0.824 | relative viability (Shikonin + Foretinib; first compound 0.3162 µM): 0.777 | relative viability (Shikonin + Foretinib; first compound 1 µM): 0.941 | relative viability ([1]; first compound 0.08 µM): 0.905 | relative viability ([1]; first compound 0.8 µM): 0.744 | relative viability ([1]; first compound 2.53 µM): 0.97 | relative viability ([1]; first compound 8 µM): 0.897

NCI-H838
relative viability (Shikonin + Foretinib; first compound 0.01 µM): 1.08 | relative viability (Shikonin + Foretinib; first compound 0.1 µM): 1.16 | relative viability (Shikonin + Foretinib; first compound 0.3162 µM): 1.2 | relative viability (Shikonin + Foretinib; first compound 1 µM): 0.999 | relative viability ([1]; first compound 0.08 µM): 0.258 | relative viability ([1]; first compound 0.253 µM): 0.264 | relative viability ([1]; first compound 0.8 µM): 0.341 | relative viability ([1]; first compound 2.53 µM): 0.275 | relative viability ([1]; first compound 8 µM): 0.233

HCC-15
relative viability (Shikonin + Foretinib; first compound 0.01 µM): 1.05 | relative viability (Shikonin + Foretinib; first compound 0.1 µM): 1.02 | relative viability (Shikonin + Foretinib; first compound 0.3162 µM): 1.12 | relative viability (Shikonin + Foretinib; first compound 1 µM): 0.986 | relative viability ([1]; first compound 0.08 µM): 0.354 | relative viability ([1]; first compound 0.253 µM): 0.542 | relative viability ([1]; first compound 0.8 µM): 0.369 | relative viability ([1]; first compound 2.53 µM): 0.401 | relative viability ([1]; first compound 8 µM): 0.337

ABC-1
relative viability (Shikonin + Foretinib; first compound 0.01 µM): 1.14 | relative viability (Shikonin + Foretinib; first compound 0.1 µM): 0.993 | relative viability (Shikonin + Foretinib; first compound 0.3162 µM): 0.927 | relative viability (Shikonin + Foretinib; first compound 1 µM): 1.04 | relative viability ([1]; first compound 0.08 µM): 0.183 | relative viability ([1]; first compound 0.253 µM): 0.174 | relative viability ([1]; first compound 2.53 µM): 0.183 | relative viability ([1]; first compound 8 µM): 0.178

LCLC-103H
relative viability (Shikonin + Foretinib; first compound 0.01 µM): 0.875 | relative viability (Shikonin + Foretinib; first compound 0.1 µM): 0.847 | relative viability (Shikonin + Foretinib; first compound 0.3162 µM): 0.953 | relative viability (Shikonin + Foretinib; first compound 1 µM): 0.942 | relative viability ([1]; first compound 0.08 µM): 0.603 | relative viability ([1]; first compound 0.253 µM): 0.519 | relative viability ([1]; first compound 0.8 µM): 0.432 | relative viability ([1]; first compound 2.53 µM): 0.516 | relative viability ([1]; first compound 8 µM): 0.478

NCI-H460
relative viability (Shikonin + Foretinib; first compound 0.01 µM): 1.09 | relative viability (Shikonin + Foretinib; first compound 0.1 µM): 0.797 | relative viability (Shikonin + Foretinib; first compound 0.3162 µM): 1.12 | relative viability (Shikonin + Foretinib; first compound 1 µM): 0.994 | relative viability ([1]; first compound 0.08 µM): 0.402 | relative viability ([1]; first compound 0.253 µM): 0.435 | relative viability ([1]; first compound 0.8 µM): 0.346 | relative viability ([1]; first compound 2.53 µM): 0.488 | relative viability ([1]; first compound 8 µM): 0.453

EPLC-272H
relative viability (Shikonin + Foretinib; first compound 0.01 µM): 0.715 | relative viability (Shikonin + Foretinib; first compound 0.1 µM): 0.601 | relative viability (Shikonin + Foretinib; first compound 0.3162 µM): 0.783 | relative viability (Shikonin + Foretinib; first compound 1 µM): 0.726 | relative viability ([1]; first compound 0.08 µM): 0.315 | relative viability ([1]; first compound 0.253 µM): 0.215 | relative viability ([1]; first compound 0.8 µM): 0.287 | relative viability ([1]; first compound 2.53 µM): 0.217 | relative viability ([1]; first compound 8 µM): 0.244

Reference: the supplement of paper PMC10307832
